Reference: publication PMC4536076, “Chemical Library Screening and Structure-Function Relationship Studies Identify Bisacodyl as a Potent and Selective Cytotoxic Agent Towards Quiescent Human Glioblastoma Tumor Stem-Like Cells” (PLoS ONE, 2015)
Where a name gives a salt, the structure may show the parent alone.

Test system: quiescent TG1 GSCs
Conditions: not given
Experimental: Proliferating or quiescent TG1 GSCs were seeded (30 000 and 40 000 viable cells/well, respectively) into 96-well opaque bottom plates (Greiner) with the Biomek FX robot (Beckman Coulter). Each compound from the Prestwick Library was then added (final concentration: 50 μM; 1% DMSO). Each molecule was tested once. Negative control wells (12/96 per assay plate) contained cells treated with 1% DMSO (final concentration) and positive control wells (4/96 per assay plate) contained cells treated with the fungal toxin ophiobolin A (Sigma Aldrich) at 50 μM with 1% DMSO. […] Luminescence in each well was measured with the Victor3 plate reader (PerkinElmer).
Relative ATP levels in each well were determined by calculating the percentage of luminescent signal in the well with respect to the average signal measured in negative control wells.
Primary screen hits were further tested in duplicate, at two concentrations (50 and 5 μM) on proliferating and quiescent TG1 GSCs. Cell plating and treatment with compounds were as for the primary screen. Hit selection/confirmation criteria for quiescent cells were as described above.

Structure (SMILES)	Activity on quiescent TG1 GSCs (hit compounds reducing ATP levels)
C[C@@H]1[C@H](O)[C@@H](C)/C=C/C=C/CC/C=C/C=C/C=C/C=C/C(O[C@H]2O[C@H](C)[C@@H](O)[C@H](N)[C@@H]2O)CC2O[C@](O)(CC(O)C(O)CCC(O)CC(O)CC(O)CC(=O)O[C@H]1C)CC(O)C2C(=O)O (stereo partly shown) [Nystatine]	yes

Same assay, conditions: primary screen, 50 μM, 24 h

Structure (SMILES)	Activity on quiescent TG1 GSCs (hit compounds reducing ATP levels)	Activity on quiescent TG1 CSCs (hit compounds increasing ATP levels)
CCCCCC[C@H]1C(=O)O[C@H](C)[C@H](NC(=O)c2cccc(NC=O)c2O)C(=O)O[C@@H](C)[C@@H]1OC(=O)CC(C)C [Antimycin A]	yes	–
CCCCCCC[N+](CC)(CC)CCCCc1ccc(Cl)cc1.Cc1ccc(S(=O)(=O)[O-])cc1 [Clofilium tosylate]	yes	–
O=C(O)c1cc(-c2ccc(F)cc2F)ccc1O [Diflunisal]	yes	–
C[C@]12CC[C@H](O)C[C@H]1CC[C@@H]1[C@@H]2CC[C@]2(C)[C@@H](C3=CC(=O)OC3)CC[C@]12O [Digitoxigenin]	yes	–
COc1cc2nc(N3CCN(C(=O)C4COc5ccccc5O4)CC3)nc(N)c2cc1OC (stereo not shown) [Doxazosin mesylate]	yes	–
O=c1c2ccccc2[se]n1-c1ccccc1 [Ebselen]	yes	–
Clc1ccc(COC(Cn2ccnc2)c2ccc(Cl)cc2Cl)cc1 (stereo not shown) [Econazole nitrate]	yes	–
CCOc1ccc(Cc2nccc3cc(OCC)c(OCC)cc23)cc1OCC [Ethaverine hydrochloride]	yes	–
CCc1cc(C(N)=S)ccn1 [Ethionamide]	–	yes
O=C(O)c1ccccc1Nc1cccc(C(F)(F)F)c1 [Flufenamic acid]	yes	–
Fc1ccc(C(c2ccc(F)cc2)N2CCN(C/C=C/c3ccccc3)CC2)cc1 [Flunarizine dihydrochloride]	yes	–
CC(C)C(=O)Nc1ccc([N+](=O)[O-])c(C(F)(F)F)c1 [Flutamide]	yes	–
CCCCN(CCCC)CCC(O)c1cc2c(Cl)cc(Cl)cc2c2cc(C(F)(F)F)ccc12 (stereo not shown) [Halofantrine hydrochloride]	yes	–
CC[C@H](c1ccc(O)cc1)[C@@H](CC)c1ccc(O)cc1 [Hexestrol]	yes	–
c1ccc2c(c1)OCC(C1=NCCN1)O2 (stereo not shown) [Idazoxan hydrochloride]	–	yes
CCCCCN(CCCCC)C(=O)C(CCC(=O)[O-])NC(=O)c1ccc(Cl)c(Cl)c1.[Na+] (stereo not shown) [Lorglumide sodium salt]	–	yes
CC[C@H](C)C(=O)O[C@H]1C[C@@H](C)C=C2C=C[C@H](C)[C@H](CC[C@@H]3C[C@@H](O)CC(=O)O3)[C@H]21 [Lovastatin]	–	yes
CC[C@@]1([C@H]2O[C@H]([C@H]3O[C@@](O)(CO)[C@H](C)C[C@@H]3C)C[C@H]2C)CC[C@H]([C@@]2(C)CC[C@]3(C[C@H](O)[C@@H](C)[C@@H]([C@H](C)[C@H](OC)[C@@H](C)C(=O)[O-])O3)O2)O1.[Na+] [Monensin sodium salt]	yes	–
O=C(Nc1ccc([N+](=O)[O-])cc1Cl)c1cc(Cl)ccc1O [Niclosamide]	yes	–
C[C@@H]1O[C@@H](O[C@@H]2C=C3CC[C@@H]4[C@H](CC[C@]5(C)[C@@H](c6ccc(=O)oc6)CC[C@]45O)[C@@]3(C)CC2)[C@H](O)[C@H](O)[C@H]1O [Proscillaridin A]	yes	–
Cc1cc(/C=C/c2ccc3cc(N(C)C)ccc3[n+]2C)c(C)n1-c1ccccc1.Cc1cc(/C=C/c2ccc3cc(N(C)C)ccc3[n+]2C)c(C)n1-c1ccccc1.O=C([O-])c1cc2ccccc2c(Cc2c(O)c(C(=O)[O-])cc3ccccc23)c1O [Pyvinium pamoate]	yes	–
